Data published in US11078204B2, “Heterocyclic derivatives as PI3K inhibitors” (Incyte Corporation, priority 2018, dated 2021).
Where a name gives a salt, the structure may show the parent alone.

Key:
[1] = target: PI3Kγ (p110γ) Recombinant Human Protein (Homo sapiens (Human), UniProt P48736); experiment: PI3K-γ Scintillation Proximity Assay; format: biochemical; settings: 20 μM PIP2, 2 μM ATP, 13 nM PI3Kγ, 120 min
Source text: Example B. PI3K-γ Scintillation Proximity Assay
(§1) [γ-^33P]ATP (10 mCi/mL) and Wheat Germ Agglutinin (WGA) YSi SPA Scintillation Beads was purchased from Perkin Elmer (Waltham, Mass.). Lipid kinase substrate, D-myo-Phosphatidylinositol 4,5-bisphosphate (PtdInS(4,5)P2)D (+)-sn-1,2-di-O-octanoylglyceryl, 3-O-phospho linked (PIP2), CAS 204858-53-7, was purchased from Echelon Biosciences (Salt Lake City, Utah). PI3Kγ (p110γ) Recombinant Human Protein was purchased from Life technology (Grand Island, N.Y.). ATP, MgCl2, DTT, EDTA, MOPS and CHAPS were purchased from Sigma Aldrich (St. Louis, Mo.).
(§2) The kinase reaction was conducted in polystyrene 384-well Greiner Bio-one white plate from Thermo Fisher Scientific in a final volume of 25 μL. Inhibitors were first diluted serially in DMSO and added to the plate wells before the addition of other reaction components. The final concentration of DMSO in the assay was 2%. The PI3Kγ assay was carried out at room temperature in 20 mM MOPS, pH 6.7, 10 mM MgCl2, 5 mM DTT and CHAPS 0.03%. Reactions were initiated by the addition of ATP, the final reaction mixture consisted of 20 μM PIP2, 2 μM ATP, 0.5 μCi [γ-^33p]ATP, 13 nM PI3Kγ. Reactions were incubated for 120 min and terminated by the addition of 40 μL SPA beads suspended in quench buffer: 163 mM potassium phosphate pH 7.8, 20% glycerol, 25 mM EDTA. The final concentration of SPA beads is 1.0 mg/mL. After the plate sealing, plates were shaken overnight at room temperature and centrifuged at 1500 rpm for 10 min, the radioactivity of the product was determined by scintillation counting on Topcount (PerkinElmer). IC50 determination was performed by fitting the curve of percent of the solvent control activity versus the log of the inhibitor concentration using the GraphPad Prism 6.0 software.

[2] = target: PI3Kδ (p110δ/p85α) Recombinant Human Protein (Homo sapiens (Human), UniProt O00329); experiment: PI3Kδ Scintillation Proximity Assay; format: biochemical; settings: 20 μM PIP2, 2 μM ATP, 3.4 nM PI3Kδ, 120 min
PI3Kδ (p110δ/p85α) Recombinant Human Protein, sequence (O00329 whole entry): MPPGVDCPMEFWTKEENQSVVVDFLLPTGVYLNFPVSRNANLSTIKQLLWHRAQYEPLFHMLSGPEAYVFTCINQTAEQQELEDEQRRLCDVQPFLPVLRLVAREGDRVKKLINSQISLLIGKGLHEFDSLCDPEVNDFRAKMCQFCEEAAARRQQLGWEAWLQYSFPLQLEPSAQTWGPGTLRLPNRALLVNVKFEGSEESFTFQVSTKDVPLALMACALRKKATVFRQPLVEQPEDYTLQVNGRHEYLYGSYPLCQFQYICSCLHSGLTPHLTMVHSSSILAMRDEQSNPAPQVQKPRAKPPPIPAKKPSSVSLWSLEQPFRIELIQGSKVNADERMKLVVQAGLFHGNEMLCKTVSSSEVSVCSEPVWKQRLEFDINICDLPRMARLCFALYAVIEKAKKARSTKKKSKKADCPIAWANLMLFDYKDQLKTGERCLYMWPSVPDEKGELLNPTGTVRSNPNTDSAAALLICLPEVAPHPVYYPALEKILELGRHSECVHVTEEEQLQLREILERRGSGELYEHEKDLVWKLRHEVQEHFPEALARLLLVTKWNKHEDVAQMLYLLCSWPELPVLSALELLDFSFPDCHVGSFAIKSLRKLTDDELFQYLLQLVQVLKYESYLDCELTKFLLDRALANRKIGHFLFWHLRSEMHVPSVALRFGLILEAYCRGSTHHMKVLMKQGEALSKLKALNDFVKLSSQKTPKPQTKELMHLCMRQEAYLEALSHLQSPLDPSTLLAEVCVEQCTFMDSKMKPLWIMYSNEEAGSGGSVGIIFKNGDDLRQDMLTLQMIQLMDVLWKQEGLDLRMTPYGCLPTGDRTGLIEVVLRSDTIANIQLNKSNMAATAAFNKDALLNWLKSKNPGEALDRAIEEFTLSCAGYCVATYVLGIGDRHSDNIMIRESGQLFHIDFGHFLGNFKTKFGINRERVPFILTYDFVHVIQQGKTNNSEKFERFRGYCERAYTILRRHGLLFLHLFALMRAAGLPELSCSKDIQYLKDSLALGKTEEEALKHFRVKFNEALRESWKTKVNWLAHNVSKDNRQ
PI3Kδ (p110δ/p85α) Recombinant Human Protein, sequence (P27986 whole entry partner): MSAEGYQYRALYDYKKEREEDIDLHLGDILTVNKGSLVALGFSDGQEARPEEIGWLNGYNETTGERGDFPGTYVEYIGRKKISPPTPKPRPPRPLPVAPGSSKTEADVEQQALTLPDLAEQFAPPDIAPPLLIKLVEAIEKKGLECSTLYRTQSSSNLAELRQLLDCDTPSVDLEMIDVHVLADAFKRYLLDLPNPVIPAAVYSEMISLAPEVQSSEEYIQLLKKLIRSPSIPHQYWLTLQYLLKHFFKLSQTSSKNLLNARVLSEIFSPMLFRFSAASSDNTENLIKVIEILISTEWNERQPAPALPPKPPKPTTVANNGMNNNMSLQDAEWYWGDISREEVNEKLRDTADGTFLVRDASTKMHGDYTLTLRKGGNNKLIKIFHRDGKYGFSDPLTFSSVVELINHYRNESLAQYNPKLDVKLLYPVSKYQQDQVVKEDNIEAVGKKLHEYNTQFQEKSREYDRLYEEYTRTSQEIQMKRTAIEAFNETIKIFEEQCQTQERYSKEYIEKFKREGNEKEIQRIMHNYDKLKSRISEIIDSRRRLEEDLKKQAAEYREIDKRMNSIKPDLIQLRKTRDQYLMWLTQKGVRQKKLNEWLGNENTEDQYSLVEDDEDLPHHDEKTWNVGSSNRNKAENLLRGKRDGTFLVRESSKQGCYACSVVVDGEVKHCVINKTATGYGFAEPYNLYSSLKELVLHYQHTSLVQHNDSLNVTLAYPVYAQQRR
Source text: Example C. PI3Kδ Scintillation Proximity Assay
as §1, with “PI3Kδ (p110δ/p85α)” for “PI3Kγ (p110γ)”, “Eurofins (St Charles, Mo.).” for “Life technology (Grand Island, N.Y.).”
as §2, with “PI3Kδ” for “PI3Kγ”, “[γ-^33P]ATP, 3.4” for “[γ-^33p]ATP, 13”, “PI3Kδ.” for “PI3Kγ.”

PI3Kγ (p110γ) Recombinant Human Protein, sequence (P48736 whole entry): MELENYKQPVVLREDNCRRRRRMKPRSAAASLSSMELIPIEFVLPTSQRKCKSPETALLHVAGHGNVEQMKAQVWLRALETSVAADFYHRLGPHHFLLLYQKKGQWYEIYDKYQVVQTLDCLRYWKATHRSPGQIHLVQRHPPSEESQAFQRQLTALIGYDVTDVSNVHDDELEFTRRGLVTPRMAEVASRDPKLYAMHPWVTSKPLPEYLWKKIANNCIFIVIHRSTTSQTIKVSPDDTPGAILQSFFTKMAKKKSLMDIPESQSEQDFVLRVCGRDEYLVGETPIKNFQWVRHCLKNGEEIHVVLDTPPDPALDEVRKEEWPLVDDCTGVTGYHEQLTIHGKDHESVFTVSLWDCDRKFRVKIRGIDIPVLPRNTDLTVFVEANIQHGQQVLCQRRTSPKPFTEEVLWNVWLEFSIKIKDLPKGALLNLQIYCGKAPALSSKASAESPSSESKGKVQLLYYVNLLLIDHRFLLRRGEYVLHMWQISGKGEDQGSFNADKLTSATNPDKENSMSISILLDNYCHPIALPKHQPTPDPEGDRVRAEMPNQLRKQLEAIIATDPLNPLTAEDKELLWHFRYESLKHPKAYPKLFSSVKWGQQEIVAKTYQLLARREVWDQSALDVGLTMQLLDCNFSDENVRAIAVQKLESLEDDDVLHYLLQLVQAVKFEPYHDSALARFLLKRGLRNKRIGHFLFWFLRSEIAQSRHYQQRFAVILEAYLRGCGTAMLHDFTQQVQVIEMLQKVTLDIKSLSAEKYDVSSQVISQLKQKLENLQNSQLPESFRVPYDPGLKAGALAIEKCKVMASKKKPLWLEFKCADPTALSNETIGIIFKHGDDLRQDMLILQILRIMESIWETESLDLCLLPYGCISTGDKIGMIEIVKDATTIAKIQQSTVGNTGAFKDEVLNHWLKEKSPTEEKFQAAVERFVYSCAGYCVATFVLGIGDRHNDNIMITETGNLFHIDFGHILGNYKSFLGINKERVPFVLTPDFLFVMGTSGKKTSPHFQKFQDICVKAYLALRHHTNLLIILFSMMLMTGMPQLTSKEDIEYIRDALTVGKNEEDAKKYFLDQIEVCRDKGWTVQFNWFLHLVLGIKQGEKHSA

IC50 [1]	IC50 [2]	Structure (SMILES)
≤ 500 nM	≥ 2000 nM	Nc1nc(C(F)(F)F)cn2c(-c3ccc4c(c3)CN(C(CO)C3CC3)C4=O)cnc12 (racemic) [Example 46, 5-(8-Amino-6-(trifluoromethyl)imidazo[1,2-a]pyrazin-3-yl)-2-(1-cyclopropyl-2-hydroxyethyl)isoindolin-1-one, trifluoroacetate salt]
< 2000 nM	≥ 2000 nM	NCC(C1CC1)N1Cc2cc(-c3cnc4c(N)nc(C(F)(F)F)cn34)ccc2C1=O (racemic) [Example 42, 2-(2-Amino-1-cyclopropylethyl)-5-(8-amino-6-(trifluoromethyl)imidazo[1,2-a]pyrazin-3-yl)isoindolin-1-one, trifluoroacetate salt]
< 2000 nM	≥ 2000 nM	Nc1nc(C(F)(F)F)cn2c(-c3ccc4c(c3)CN(C(C(=O)O)C3CC3)C4=O)cnc12 (racemic) [Example 47, 2-(5-(8-Amino-6-(trifluoromethyl)imidazo[1,2-a]pyrazin-3-yl)-1-oxoisoindolin-2-yl)-2-cyclopropylacetic acid, trifluoroacetate salt]
< 2000 nM	≥ 2000 nM	CNC(=O)C(C1CC1)N1Cc2cc(-c3cnc4c(N)nc(C(F)(F)F)cn34)ccc2C1=O (racemic) [Example 45, 2-(5-(8-Amino-6-(trifluoromethyl)imidazo[1,2-a]pyrazin-3-yl)-1-oxoisoindolin-2-yl)-2-cyclopropyl-N-methylacetamide, trifluoroacetate salt]
< 2000 nM	≥ 2000 nM	CS(=O)(=O)NCC(C1CC1)N1Cc2cc(-c3cnc4c(N)nc(C(F)(F)F)cn34)ccc2C1=O (racemic) [Example 43, N-(2-(5-(8-Amino-6-(trifluoromethyl)imidazo[1,2-a]pyrazin-3-yl)-1-oxoisoindolin-2-yl)-2-cyclopropylethyl)methanesulfonamide, trifluoroacetate salt]
< 2000 nM	≥ 2000 nM	CC(=O)NCC(C1CC1)N1Cc2cc(-c3cnc4c(N)nc(C(F)(F)F)cn34)ccc2C1=O (racemic) [Example 44, N-(2-(5-(8-Amino-6-(trifluoromethyl)imidazo[1,2-a]pyrazin-3-yl)-1-oxoisoindolin-2-yl)-2-cyclopropylethyl)acetamide, trifluoroacetate salt]
≤ 500 nM	≥ 2000 nM	CC(C)(C)OC(=O)NCC(C1CC1)N1Cc2cc(-c3cnc4c(N)nc(C(F)(F)F)cn34)ccc2C1=O (racemic) [Example 41, tert-Butyl (2-(5-(8-amino-6-(trifluoromethyl)imidazo[1,2-a]pyrazin-3-yl)-1-oxoisoindolin-2-yl)-2-cyclopropylethyl)carbamate]

The next lines start with the molecule.

Structure (SMILES)	IC50 [1]	IC50 [2]
CC(C)c1nc2ccc(-c3cnc4c(N)ncnn34)cn2n1 [Example 21, 7-(2-Isopropyl-[1,2,4]triazolo[1,5-a]pyridin-6-yl)imidazo[2,1-f][1,2,4]triazin-4-amine trifluoroacetate salt]	≤ 500 nM	≥ 2000 nM
CC(C)c1cc2nc(-c3cnc4c(N)ncnn34)ccn2n1 [Example 24, 7-(2-Isopropylpyrazolo[1,5-a]pyrimidin-5-yl)imidazo[2,1-f][1,2,4]triazin-4-amine trifluoroacetate salt]	< 2000 nM	≥ 2000 nM
CCN1Cc2cc(-c3cnc4c(N)nc(C(F)(F)F)cn34)ccc2C1=O [Example 9, 5-(8-Amino-6-(trifluoromethyl)imidazo[1,2-a]pyrazin-3-yl)-2-ethylisoindolin-1-one trifluoroacetate salt]	≤ 500 nM	< 2000 nM
C[C@@H](C1CC1)N1Cc2cc(-c3cnc4c(N)nc(C(=O)N5CC(O)C5)cn34)ccc2C1=O (single isomer, unassigned) [Example 30, trifluoroacetate salt]	≤ 100 nM	≥ 2000 nM
Cc1cc(-c2cnc3c(N)ncnn23)cc2cnn(C(C)C3CC3)c12 (stereo not shown) [Example 19, 7-(1-(1-Cyclopropylethyl)-7-methyl-1H-indazol-5-yl)imidazo[2,1-f][1,2,4]triazin-4-amine trifluoroacetate salt]	≤ 500 nM	≥ 2000 nM
Nc1nc(C(F)(F)F)cn2c(-c3ccc4c(c3)CNC4=O)cnc12 [Example 4, 5-(8-Amino-6-(trifluoromethyl)imidazo[1,2-a]pyrazin-3-yl)isoindolin-1-one trifluoroacetate salt]	< 2000 nM	< 2000 nM
CC(C1CC1)n1cc2cc(-c3cnc4c(N)ncnn34)ncc2n1 (stereo not shown) [Example 26, 7-(2-(1-Cyclopropylethyl)-2H-pyrazolo[3,4-c]pyridin-5-yl)imidazo[2,1-f][1,2,4]triazin-4-amine, trifluoroacetate]	≤ 100 nM	≥ 2000 nM
CC(C)c1cc2cc(-c3cnc4c(N)ncnn34)ccn2n1 [Example 23, 7-(2-Isopropylpyrazolo[1,5-a]pyridin-5-yl)imidazo[2,1-f][1,2,4]triazin-4-amine trifluoroacetate salt]	≤ 500 nM	≥ 2000 nM
CC(C1CC1)n1nc2ccc(-c3cnc4c(N)ncnn34)cc2n1 (racemic) [Example 20, 7-(2-(1-cyclopropylethyl)-2H-benzo[d][1,2,3]triazol-5-yl)imidazo[2,1-f][1,2,4]triazin-4-amine trifluoroacetate salt]	≤ 500 nM	≥ 2000 nM
CCN1Cc2cc(-c3cnc4c(N)ncnn34)ccc2C1=O [Example 10, 5-(4-Aminoimidazo[2,1-f][1,2,4]triazin-7-yl)-2-ethylisoindolin-1-one trifluoroacetate salt]	≤ 500 nM	< 2000 nM
CC(C)c1cn2cc(-c3cnc4c(N)ncnn34)ccc2n1 [Example 22, 7-(2-isopropylimidazo[1,2-a]pyridin-6-yl)imidazo[2,1-f][1,2,4]triazin-4-amine]	≤ 500 nM	≥ 2000 nM
CC(c1ccccc1)N1Cc2cc(-c3cnc4c(N)nc(C(F)(F)F)cn34)ccc2C1=O (racemic) [Example 11, 5-(8-Amino-6-(trifluoromethyl)imidazo[1,2-a]pyrazin-3-yl)-2-(1-phenylethyl)isoindolin-1-one 1.4× trifluoroacetate salt]	≤ 100 nM	≥ 2000 nM
CC(c1cn2cc(-c3cnc4c(N)ncnn34)ccc2n1)C1CC1 (stereo not shown) [Example 27, 7-(2-(1-Cyclopropylethyl)imidazo[1,2-a]pyridin-6-yl)imidazo[2,1-f][1,2,4]triazin-4-amine trifluoroacetate salt]	≤ 100 nM	≥ 2000 nM
